{"source": "patent US20080260637A1", "about": "“Methods of Detecting Prostate Cancer” (priority 2004, published 2008)", "key": {"mitochondria": {"test_system": "mitochondria", "details": "energy dependent manner; cited from earlier work"}, "[1]": {"test_system": "prostate cancer tumor areas", "assay": "SPECT imaging of excised intact prostate after intravenous Tc^99Sestamibi, compared with whole mount histopathology", "format": "in vivo, human", "details": "25mCi i.v. 1-2 hours prior to prostate excision; ex-vivo SPECT of intact prostate; two patients shown", "method": "Twelve prostate cancer patients were intravenously administered with 25mCi Tc^99Sestamibi 1-2 hours prior to prostate excision. Intact prostates were excised using surgical procedures (Radical Retro pubic Prostatectomy, Radical Cystectomy or Open Prostatectomy)—illustrated in FIG. 3. The intact prostate was imaged by SPECT using a standard dual head gamma camera (millennium, GE) 6° angular step and 40 sec/step. Imaging results were reviewed using both transaxial (FIGS. 4I-N and FIGS. 5C-D) and coronal views (FIGS. 4O-T and FIG. 5E). The nuclear images were processed automatically. The designated green lines seen in FIGS. 4I-M and 4O-R and 5C and 5E were produced following an automatic search for maximal intensity voxel. Contours were determined at 90% maximal intensity. Following imaging, prostate tissue was sliced transversely from bladder neck (base) to apex. Whole mount histopathology was carried out as described in Example 1."}}}
{"smiles": "[C-]#[N+]CC(C)(C)OC.[C-]#[N+]CC(C)(C)OC.[C-]#[N+]CC(C)(C)OC.[C-]#[N+]CC(C)(C)OC.[C-]#[N+]CC(C)(C)OC.[C-]#[N+]CC(C)(C)OC.[Tc]", "note": "[Tc^99Sestamibi]", "values": [{"measurement": "fraction of agent taken up by mitochondria", "setting": "mitochondria", "result": "more than 90%"}, {"measurement": "identification of tumor areas by SPECT scanning", "setting": "[1]", "result": "identified tumor areas as corroborated by whole mount histopathology"}]}
